The text below walks through data of patent US6197774A, “Pyrimidine derivative” (Otsuka Pharmaceutical Co., Ltd., priority 1997, dated 2001).

The test system of the test is formation of NO in cell strain RAW 264.7. As to the kind of experiment: Activity for inhibiting the formation of NO (LPS-stimulated RAW 264.7 cells, Griess reagent). The test is classed as cell-based. The settings on record: Mus musculus, RAW264.7, 1 × 10^-6 M, LPS 100 ng/ml, 24 hours, read-out: Ratio of formed amount of NO (reference culture medium = 100). How it is done: [Evaluation test of activity for inhibiting the formation of NO]
Pharmacological tests of pyrimidine derivatives obtained in Examples 1, 12, 14, 19, 22, 24, 29 and 42 used as test compounds were conducted as follows.
Preparation of culture media and method of cell culture were conducted in accordance with those described in J. Biol. Chem., Vol. 269, No. 1, pp. 711-715, (1994), and determination of formed amount of NO was conducted in accordance with the method described in Anal. Biochem., Vol. 126, pp. 131-138, (1982), respectively.
(1) Cell Culture and Inducible Synthesis of NO in the Cells by Stimulation with Lipopolysaccharide (LPS)
Cell strain RAW 264.7 (ATCC) derived from the macrophage of mouse was placed on each one of the wells on a microplate having 24-wells so as to put the cells in an amount of 1×10^5 cells/U (well). The cells were incubated for 24 hours in a phenol red free-RPMI-1640 culture medium (mfd. by GIBCO) to which 10% of fetal bovine serum, 100 U/ml of penicillin (mfd. by Dainippon Pharmaceutical Co., Ltd.) and 100 μg/ml of streptomycin (mfd. by Dainippon Pharmaceutical Co., Ltd.) were added.
Next, the reference culture medium was prepared by adding 2 mM of L-arginine (mfd. by Wako Pure Chemical Industries, Ltd.), 10 μM/ml of tetrahydrobiopterin (mfd. by ALEXIS) and 100 ng/ml of lipopolysaccharide (LPS)(mfd. by Sigma Chemical Co.) to a phenol red free-RPMI-1640 culture medium. While, the reference culture medium without containing LPS was used as the blanc culture medium.
On the other hand, the test culture medium, containing the test compound was prepared by adding 0.2% of the test compounds dissolved in dimethyl sulfoxide (DMSO) to the reference culture medium to adjust the final concentration of the test compound to 1×10^-6 M.
Each one of the blank culture medium, reference culture medium and test culture medium containing the test compound was added, respectively to the well on the micro-plate where the above-mentioned cell strain RAW 264.7 was placed, and was incubated for 24 hours.
(2) Measurement of the Amount of Formed NO
Quantitative measurement of NO cannot be made directly, due to its unstability. Therefore, the amount of NO is measured indirectly, thus by forming nitrous acid ion (hereunder referred to as NO2^-) which is stable product derived from NO by use of Griess reagent [consisting of 1% of sulfanylamide and 0.1% of sulfuric acid solution containing 0.1% N-(1-naphthyl)ethylenediamine dihydrochloride], and measure the amount of NO2^-.
Into the supernatant of each one of the culture media was admixed with the same amount of Griess reagent respectively, and subjected to reaction at room temperature for 10 minutes, then the optical absorbance at 540 nm of the thus reacted culture medium was measured. While, the optical absorbance of sodium nitrite solution diluted with the culture medium was referred to as the standard value, and the amount of NO2^- formed in each one of these incubated culture media was measured. The amounts of NO2^- formed in the reference culture medium and the test culture medium were corrected by using the value of formed amount of NO2^- in the blanc culture medium.
On the basis of that the ratio of amounts of NO2^- formed in the reference culture medium and that of formed in the test culture medium is corresponding to the ratio of amount of NO formed in the reference culture medium and that of formed in the test culture medium. Thus the amount of NO2^- formed in the reference culture medium is referred to as the value of 100, and the value of amount of NO2^- formed in the test culture medium is referred to as amount of NO formed in the test culture medium.

Turning to `COCc1cc(=O)n2ncc(-c3ccc(Sc4ccccc4)cc3)c2[nH]1` [Example 1, 4,7-dihydro-5-methoxymethyl-7-oxo-3-(4-phenylthiophenyl)pyrazolo[1,5-a]pyrimidine], the activity at 1 µM came out at 56%.
